These results are taken from PMC7979488 (ChemMedChem, 2020).

The subject of experiment [1] is SARS-CoV-2. Type of experiment: cell-based.
For experiment [2], the system named is SARS-CoV-2. Format: cell-based. The conditions noted are these: A549/ACE2 cells.
Setting [3] is: Vero E6 cells, tested range 80 nM to 10 μM, two repeats.

Where two headings read alike, the source gives them in different places.

Turning to `O=C[C@H](C[C@@H]1CCNC1=O)NC(=O)[C@H](CC1CCCCC1)NC(=O)c1cc2ccccc2[nH]1` [11a, reference compound], the “concentration at which SARS-CoV-2-induced CPE was completely abolished” value in the experiment with SARS-CoV-2 [1] (setting [3]) was found to be 10 µM.

With `O=C[C@H](C[C@@H]1CCNC1=O)NC(=O)[C@H](Cc1ccccc1)NC(=O)/C=C/c1ccc(Cl)cc1F` [MPI2], the “concentration at which SARS-CoV-2-induced CPE was completely abolished” value in the experiment with SARS-CoV-2 [1] (setting [3]) amounted to 10 µM.

As for `CC(C)C[C@H](NC(=O)[C@@H](NC(=O)OCc1ccccc1)C(C)C)C(=O)N[C@H](C=O)C[C@@H]1CCNC1=O` [MPI3], the “complete prevention of CPE (in words)” value with SARS-CoV-2 [1] (Vero E6 cells, tested range 80 nM to 10 μM) was “not able to completely prevent CPE at all tested concentrations”.

`CC(C)[C@H](NC(=O)OCc1ccccc1)C(=O)N[C@@H](CC1CCCCC1)C(=O)N[C@H](C=O)C[C@@H]1CCNC1=O` [MPI5]: the “concentration at which SARS-CoV-2-induced CPE was completely abolished” value in the experiment with SARS-CoV-2 [1] (setting [3]) was 5 µM. Moreover, in the experiment on SARS-CoV-2 [2] (as stated in abstract), the “concentration for complete prevention of SARS-CoV-2-induced CPE” value lay in the range of 0.16 to 0.31 µM. The “concentration for complete abolition of CPE” value in the experiment on SARS-CoV-2 [2] (tested range 80 nM to 10 μM) lay within 160 to 310 nM.

As to `CC(OC(C)(C)C)[C@H](NC(=O)OCc1ccccc1)C(=O)N[C@@H](Cc1ccccc1)C(=O)N[C@H](C=O)C[C@@H]1CCNC1=O` (stereo partly drawn) [MPI7], the “concentration at which SARS-CoV-2-induced CPE was completely abolished” value in the experiment on SARS-CoV-2 [1] (setting [3]) lay in the range of 2.5 to 5 µM. Besides, in the experiment on SARS-CoV-2 [2] (tested range 80 nM to 10 μM), the “complete abolition of CPE / potency (in words)” value is “not able to completely abolish CPE at all tested conditions”.

As to GC376 [reference compound], the “concentration at which SARS-CoV-2-induced CPE was completely abolished” value in the experiment on SARS-CoV-2 [1] was 10 µM.
